Experiments:
[1] = biological target: Glutamate receptor ionotropic, AMPA (Rattus norvegicus, UniProt P19490+P19491+P19492+P19493)
[2] = organism: Rattus norvegicus; conditions: dose 3 mg/kg; route intravenous
Description: Change in systolic blood pressure before and after intravenous administration of 3 mg/kg dose in rats

[3] = Inhibitory activity against [Ca(2+)]-impermeable Ionotropic glutamate receptor AMPA was determined; conditions: concentration not given here
[4] = biological target: Glutamate receptor ionotropic, AMPA (Rattus norvegicus) (UniProt P19491+P19492+P19493+P19490); experiment: Antagonistic activity against Ca++permeable Ionotropic glutamate receptor AMPA as concentration of compound that reduces the inward current induced by kainate by 50% in Xenopus oocytes; type: functional, cell-based; conditions: Oocyte; concentration not given here

CC(C)CNCCCCNCC1CCN(C(=O)Cc2cccc3ccccc23)CC1
IC50 [1]: 790 nM
Delta SBP [2]: 7 mmHg

O=C(Cc1cccc2ccccc12)N1CCC(CNCCCCNCC2CCCCC2)CC1
IC50 [1]: 250 nM
inhibition [3]: 4.4%
Delta SBP [2]: 11 mmHg

CC(C)NCCCCNCC1CCN(C(=O)Cc2cccc3ccccc23)CC1
IC50 [1]: 730 nM
Delta SBP [2]: 10 mmHg

O=C(Cc1cccc2ccccc12)N1CCC(CNCCCCNCCN2CCCCC2)CC1
Delta SBP [2]: 5 mmHg

NCCCCNCC1CCN(C(=O)Cc2cccc3ccccc23)CC1
inhibition [4]: 54%
Delta SBP [2]: -53 mmHg

CCCNCCCCNCC1CCN(C(=O)Cc2cccc3ccccc23)CC1
IC50 [1]: 740 nM
Delta SBP [2]: 9 mmHg

O=C(Cc1cccc2ccccc12)N1CCC(CNCCCCNCC2CCOCC2)CC1
inhibition [4]: 35%
Delta SBP [2]: -22 mmHg

CN(C)CCCCNCC1CCN(C(=O)Cc2cccc3ccccc23)CC1
IC50 [1]: 530 nM
Delta SBP [2]: 12 mmHg

O=C(Cc1cccc2ccccc12)N1CCC(CNCCCCNCCCO)CC1
inhibition [4]: 44%
Delta SBP [2]: -6 mmHg

O=C(Cc1cccc2ccccc12)N1CCC(CNCCCCCCC2CCCCC2)CC1
inhibition [4]: 1%
Delta SBP [2]: -50 mmHg

O=C(Cc1cccc2ccccc12)N1CCC(CCCCCCNCC2CCCCC2)CC1
inhibition [4]: 42%
Delta SBP [2]: -35 mmHg

O=C(Cc1cccc2ccccc12)N1CCC(CNCCCCN2CCCCC2)CC1
IC50 [1]: 390 nM
Delta SBP [2]: 4 mmHg

Reference: ChEMBL document CHEMBL1133985, “Synthesis of diaminobutane derivatives as potent Ca(2+)-permeable AMPA receptor antagonists” (Bioorg Med Chem Lett, 2001)
